The subject of this experiment is GAS. The experiment is described as follows: Bacterial translocation through polarized keratinocyte cultures (Transwell). It counts as cell-based, Group A Streptococcus. The settings on record: two hours after addition of GAS. Here is the method: Cell cultures: For the preparation of in vitro keratinocyte cultures, human primary OKP7 cells were derived from the oropharynx. Keratinocytes were seeded at 5×10^5 cells per well onto polycarbonate Transwell membrane supports (12 well plates, 3.0 μm pore size; Costar) or tissue culture treated plastic ware and cultured for 5-10 days at 37° C. with 5% humidified CO2 in cSFM medium with daily medium changes. Once confluent, the calcium concentration of the cSFM was increased to 1.2 mM and cells were cultured for 2 more days, before the integrity of the monolayer was assessed by measuring permeability to sodium fluorescein, and in some experiments, by measuring transepithelial electrical resistance.
Infection procedures: Keratinocyte layer cultures in Transwell inserts were inoculated in the upper chamber with GAS, S. equi, S. uberis, and P. multocida at a multiplicity of infection (MOI) of 1 bacterium per keratinocyte in the presence or absence of HABP01 or SCRM. Infected cultures were incubated at 37° C. with 5% CO2 for the desired time. In translocation experiments, Transwell inserts containing the keratinocytes were moved to new wells containing fresh medium every 2 hours to prevent overgrowth of bacteria that had translocated through the keratinocytes layer to the lower chamber. Bacterial translocation was quantified by culturing medium from the lower chamber at 2-hour intervals.
Bacterial translocation studies were performed to assess the impact of HABP01 on bacterial paracellular translocation through polarized keratinocyte cultures.
Incubation of GAS in the presence of HABP33, HABP35 and HABP42, also delayed GAS translocation. At two hours after the addition of GAS to the keratinocytes, approximately 530 CFU of GAS were detected in the lower level in cultures treated with PBS or SCRM peptide.

“HKSVSRHTSMRHSTM [SCRM, reference compound]”: the “GAS detected in the lower level” value is on record as “approximately 530 CFU”.
